Measurements taken from patent EP0174833A2, “Triazoloquinoline derivatives” (MAY & BAKER LIMITED, priority 1984, dated 1986).

test system: lipoxygenase; assay: lipoxygenase inhibition in vitro; assay type: biochemical; conditions: concentration 0.0001M, 100 µM

% inhibition of lipoxygenase [%] | Compound
100 | CCOC(=O)C(=CNc1ccc2c(c1)c(C)cc1nnc(-c3ccccc3)n12)C(=O)OCC [A, 7-[2,2-bis(ethoxycarbonyl)ethen-l-ylamino]-5-methyl-1-phenyl-1,2,4-triazolo[4,3-a]quinoline]
100 | CCOC(=O)C(=CNc1ccc2c(c1)c(C)cc1nnc(-c3ccc(C)cc3)n12)C(=O)OCC [B, 7-[2,2-bis(ethoxycarbonyl)ethen-l-ylamino]-5-methyl-l-(4-methylphenyl)-1,2,4-triazolo-[4,3-a]quinoline]
98 | CCOC(=O)C(=CNc1ccc2c(c1)c(C)cc1nnc(-c3ccc(C(C)(C)C)cc3)n12)C(=O)OCC [D, 1-(4-tert-butylphenyl)-7-[2,2-bis(ethoxycarbonyl)ethen-1-ylamino)-5-methyl-1,2,4-triazolo[4,3-a]quinoline]
50 | CCOC(=O)C(=CNc1ccc(-c2nnc3cc(C)c4ccccc4n23)cc1)C(=O)OCC [E, 1-[4-{2,2-bis(ethoxycarbonyl)ethen-1-yl-amino}phenyl]-5-methyl-1,2,4-triazolo[4,3-a]-quinoline]

test system: mouse macrophage cells; assay: reduction of the inhibition of migration of incubated macrophage cells after oral dosing (similar to Likhite et al.); assay type: in vivo; conditions: mice, twice administered orally, one hour before and four hours after antigen, dose each time that would reduce by 50% the inhibition of macrophage migration
Procedure: For example, from tests in mice it was calculated that compounds of formula I, when twice administered orally, one hour before and four hours after the administration of antigen, each time at the doses shown in the following Table I, would reduce by 50% the inhibition of migration of incubated mouse macrophage cells measured in a manner similar to that described by Likhite et al., Cellular Immunology, Vol. 5, 1972, page 377. This is a measure of antagonism or reduction of the levels of lymphokines and is indicative of utility in the treatment of arthritic patients.

Compound | ED50 [mg/kg]
CCOC(=O)C(=CNc1ccc2c(c1)c(C)cc1nnc(-c3ccccc3)n12)C(=O)OCC [A, 7-[2,2-bis(ethoxycarbonyl)ethen-l-ylamino]-5-methyl-1-phenyl-1,2,4-triazolo[4,3-a]quinoline] | 7
CCOC(=O)C(=CNc1ccc2c(c1)c(C)cc1nnc(-c3ccc(OC)cc3)n12)C(=O)OCC [C, 7-[2,2-bis(ethoxycarbonyl)ethen-l-ylamino]-1-(4-methoxyphenyl)-5-methyl-1,2,4-triazolo-[4,3-a]quinoline] | < 10
